“Also recorded” adds a separate entry of the source. Like-named read-outs stand apart in the source and are kept apart here. Each block holds one compound with its values, some of them ahead of it. Where no end group is shown, it is not given here.
Legend:
[1] = test system: T2 cells; experiment: Chromium release assay: reconstitution of epitopes on peptide-pulsed T2 cells for HLA-A2.1-restricted melanoma-specific CTL; conditions: for % specific release (of Cr-51), no CTL: T2 + peptide 1 μM; for reconstitution of recognition by CTL lines from 3 additional patients: 946 at 0.1–1 nM, other peptides at equal or higher concentrations, FIG. 12; for effect on epitope reconstitution: VMM5 and DM204-13 CTL, concentrations up to 10 nM; for number of CTL lines/patients recognizing the peptide: HLA-A2.1 restricted melanoma specific CTL lines
Protocol: Cell-mediated killing was determined in vitro using a 4-h chromium release assay. 51Cr-labeled target cells were plated at 2×10^3 cells/well in triplicate on 96-well V-bottom plates (Costar, Cambridge, Mass.) with varying numbers of effector cells in a final volume of 250 microl. Wells containing either culture medium and target cells only or 1 M HCl and target cells served as background 51Cr release controls and total release controls, respectively. The plates were centrifuged at 100×g for 3 min and incubated at 37° C. in 5% CO2 for 4 h. The plates were again centrifuged, and 0.20 ml of medium from each well was removed for counting in a gamma counter. The cytotoxic index was calculated as: Cpm(experimental)−cpm(background)×100% Cpm(total release)−cpm(background) Lytic units were calculated for several of the cytotoxicity assays, using a software package prepared by the National. Cancer Institute (Bethesda, Md.), which solves for the equation y=A×[1−exp(−kx)], where x is the E:T ratio, y is the cytotoxic index, A is the curve maximum, and k is a constant used to calculate the slope of the best fit line. For the purposes of this study, a lytic unit was defined as the number of effector cells needed to mediate […] lysis of target cells. The number of lytic units was calculated per 10^5 effector cells (LU30 per 10^5 cells).
Effector cells were added in 100 microl assay medium to give an E:T ratio of 10:1, and were incubated at 37° C. The remainder of the assay is performed as in standard chromium release assays described above. Wells containing peptide and target cells but no CTL were used as controls to rule out toxicity of the peptides themselves.
HLA-A2.1 molecules were immunoaffinity purified from detergent lysates of the human melanoma cell line DM6. The associated peptides were released by acid extraction, separated from HLA-A2.1 and antibody by filtration, and fractionated by multiple stages of HPLC. […] L. Slingluff Jr., et al, J. Immunol. […] In FIG. 8B Fractions 2 and 3 from the separation shown in panel A were pooled and rechromatographed with a 55 minute gradient of 0 to 30% acetonitrile/0.1% heptafluorobutyric acid (HFBA) in 0.1% HFBA, collecting one-minute fractions. For both panels, peptide: fractions were incubated for 2–3h with 2×10^3 51Cr-labelled T2 cells in […] assay media per well in 96-well plates.
CTL lines VMM5 and VMM6 were generated by stimulation with autologous tumor. VMM5 CTL were maintained on allogeneic. A2.1+melanoma DM6 after specificity was obtained, C. L. Slingluff Jr. et al., J. Immunol. […] DM169-13 and DM204-13 CTL were generated by stimulation with allogeneic A2.1+melanoma DM13, N. J. Crowley et al., J. Immunol. […] LD1 CTL were stimulated on a rotating schedule of stimulating allogeneic A2.1+melanomas DM6, DM13, and DM93. DM93 is an HLA-A2.1+melanoma used as a positive control. […] T2 cells were preincubated with the peptides whose (M+H)^+ values are indicated in the legend, FIG. 12. […] Asterisks (*) mark peptides not evaluated.

[2] = test system: T2-A3 cells; type: cell-based, human
[3] = test system: VMM12 CTL; experiment: Recognition of Pmel-17 peptide by VMM12 CTL; type: cell-based, human
From the text: However, VMM12 CTL do recognize and lyse VMM18 melanoma cells. Because the only Class I MHC molecule shared by VMM12 and VMM18 is HLA-A3, it is evident that at least one additional shared CTL epitope is expressed by both of these tumors.

[4] = test system: VMM12-EBV; experiment: Screen of Pmel-17/gp100 peptides for sensitizing VMM12-EBV cells for lysis by VMM18 CTL; type: cell-based, human; conditions: Table 102 (not given)
[5] = test system: C1R-A1 cells; experiment: Chromium release assay: peptide-pulsed C1R-A1 cells, VMM15 CTL; type: cell-based, human; conditions: for reconstitution of an epitope for VMM15 CTL: C1R-A1 pulsed with 10 uM, 1 uM and 0.1 uM peptide, FIG. 22
[6] = test system: C1R-A1 cells; experiment: Chromium release assay: peptide-pulsed C1R-A1 cells, VMM12 CTL; type: cell-based, human; conditions: C1R-A1 pulsed with 1 to 0.03 uM peptide; FIG. 23
[7] = test system: tyrosinase specific CTL clone IVSB; experiment: Sensitization of target cells for lysis by tyrosinase specific CTL clone IVSB; type: cell-based, human
From the text: T. Wolfei, et. al., Eur. J. Immuno. 24, 759 (1994). […] Even when target cells were pretreated with the monoclonal antibody MA2.1 in order to facilitate exogenous peptide binding to HLA-A2.1. T. Wolfei, et al., Eur. J. Immunol.

[8] = T2-A3, VMM18 CTL, FIG. 18, read-out: half maximal lysis
[9] = CTL clone IVSB, read-out: half maximal lysis

Compound: CC[C@H](C)[C@H](NC(=O)[C@@H](N)Cc1ccc(O)cc1)C(=O)N[C@@H](CCC(=O)O)C(=O)N1CCC[C@H]1C(=O)NCC(=O)N1CCC[C@H]1C(=O)N[C@H](C(=O)N[C@H](C(=O)N[C@@H](C)C(=O)O)[C@@H](C)O)C(C)C [946I]
% specific release (of Cr-51), no CTL [1]: 0.1%

Compound: CC(C)C[C@H](NC(=O)[C@@H](N)Cc1ccc(O)cc1)C(=O)N[C@@H](CCC(=O)O)C(=O)N1CCC[C@H]1C(=O)NCC(=O)N1CCC[C@H]1C(=O)N[C@H](C(=O)N[C@H](C(=O)N[C@@H](C)C(=O)O)[C@@H](C)O)C(C)C [946L]
% specific release (of Cr-51), no CTL [1]: -1.4%

Compound: ALLAVGATK [SEQ ID NO:98]
EC50 [2, 8]: 1 to 10 nM
EC50 ([2]; read-out: half-maximal lysis of T2 cells expressing HLA-A3): ~10 nM
recognition by CTL from patient VMM12 [3]: not recognized
sensitization of VMM12-EBV for lysis by VMM18 CTL [4]: sensitized VMM12-EBV for lysis by VMM18 CTL

Compound: Ala-Xaa-Tyr-Asp-Ala-Thr-Tyr-Glu-Thr, wherein Xaa=Leu or Ile [compound 1046]
reconstitution of recognition by CTL lines from 3 additional patients [1]: neither 864 nor 1046 had any detectable activity
effect on epitope reconstitution [1]: no effect

Compound: DAEKCDICTDEY (cysteine pairing not given here) [SEQ ID NO:101]
reconstitution of an epitope for VMM15 CTL [5]: also recognized; also recorded: reconstituted
reconstitution of an epitope for VMM12 CTL [6]: reconstituted an epitope for these VMM12 CTL, although weakly

Compound: EKCDICTDEY (cysteine pairing not given here) [SEQ ID NO:102]
reconstitution of an epitope for VMM15 CTL [5]: also recognized; also recorded: reconstituted

EC50 ([5]; read-out: half-maximal lysis): ~1000 nM
Compound: KCDICTDEY [SEQ ID NO:93]
half-maximal lysis [5]: approximately 1 ug/ml
reconstitution of an epitope for VMM15 CTL [5]: most effective, even at the lowest concentration tested; also recorded: reconstituted
reconstitution of an epitope for VMM15 CTL ([5]; listed as KCDICTDEY): reconstitutes an epitope for VMM15 CTL

Compound: LLAVGATK [SEQ ID NO:4]
EC50 [2, 8]: > 1000 nM
sensitization of VMM12-EBV for lysis by VMM18 CTL [4]: sensitized VMM12-EBV for lysis by VMM18 CTL

Compound: SMAPGNTSV [compound 864]
reconstitution of recognition by CTL lines from 3 additional patients [1]: neither 864 nor 1046 had any detectable activity
effect on epitope reconstitution [1]: no effect

Compound: Tyr Xaa Glu Pro Gly Pro Val Thr Ala (YXEPGPVTA; not fully specified; X: randomised place (mixture)) [compound 946]
reconstitution of recognition by CTL lines from 3 additional patients [1]: reconstituted recognition by each of these 3 lines
number of CTL lines/patients recognizing the peptide [1]: 5 out of 5
EC50 ([1]; read-out: half-maximal lysis, dose response curves, two of the 3 additional CTL lines): 0.001 to 0.01 nM
EC50 ([1]; read-out: half-maximal lysis, other assays): 0.001 nM

Compound: Tyr met Asn Gly Thr Met Ser Gln Val [SEQ ID NO:94]
number of CTL lines/patients recognizing the peptide [1]: None of 4
EC50 [7, 9]: 10000 nM
EC50 ([7]; target cells pretreated with monoclonal antibody MA2.1, read-out: concentration required to give half-maximal target cell lysis): > 1000 nM

Compound: YMDGTMSQV [SEQ ID NO:9]
EC50 [7, 9]: 100 nM

— US7019112B1, “Peptides recognized by melanoma-specific A1-, A2- and A3-restricted cytoxic lymphocytes, and uses therefor” (University of Virginia Patent Foundation, priority 1996, dated 2006)
